The subject of data set [1] is bone marrow-derived macrophages (BMDMs). As to the kind of experiment: s-RNY expression in stimulated BMDMs, stem-loop quantitative RT-PCR. In kind it is cell-based, mouse. As to conditions: for s-RNY expression: stimulus given alone.
Data set [2] shares this test system. Described as above. It counts as cell-based, mouse. As to conditions: in combination with thapsigargin (ER stress). The protocol: Bone marrow cells were collected from femurs and tibias of ten-week-old male C57BL/6J mice by flushing with sterile medium as previously described (T. Ruggiero, M. et al (2009) FASEB J 23:2898-2908). To differentiate into macrophages, bone marrow cells (10^6) were plated in 10-cm plates in 7 ml of BMDM medium (DMEM supplemented with 20% low-endotoxin fetal bovine serum, 30% L929-cell conditioned medium, 1% I-glutamine, 1% Pen/Strep, 0.5% Na pyruvate, and 0.1% β-mercaptoethanol), and fed with 2.5 ml of fresh medium every 2 days for 7 days. Human primary macrophages were prepared from peripheral blood monocytes obtained from healthy donors (Jacquel, A., et al. (2012). Blood 119, 4527-4531) in agreement with the French legislation on human biomedical research. All participants provided written informed consent attesting they had received all the information they needed about the study and they agreed in accordance with appropriate national regulations.
RNA expression by quantitative RT-PCR was carried out by using standard procedures. Briefly, for mRNA, total RNA was isolated from cells using Trizol and cDNA was synthesized with a random hexonucleotides using Superscript III (Invitrogen). For s-RNYs detection by quantitative RT-PCR a stem-loop quantitative RT-PCR method was used according to Chen et al. (Chen, C., et al. (2005). Nucleic acids research 33, e179). Briefly, total RNA was isolated from cells, tissue, or immunoprecipitation using Trizol (Invitrogen) according to the manufacturer's instructions. RNA extraction from extracellular medium, blood plasma, and serum was performed as previously described (Turchinovich, A., et al (2011). Nucleic acids research 39, 7223-7233). Briefly, 1.2 ml of Trizol LS were added to 0.4 ml of blood plasma, serum or media. Then (i) 5 pg of synthetic miRNA-39 from Caenorhabditis elegans (cel-miR-39) were added as a spike-in control for purification efficiency; (ii) 1.2 μl of glycogen (10 mg/ml) were added to enhance the efficiency of RNA column binding. Purification of extracted total RNA was performed with miRNeasy columns (Qiagen) according to the manufacturer's instructions. RNA was eluted in 30 μl of RNase-free water. cDNA was synthesized using a hairpin long oligonucleotide. This method allows the detection of the s-RNYs derived from only the 5′ end of the precursor by quantitative RT-PCR analysis, namely the s-RNY1-5p and s-RNY3-5p from mouse and s-RNY1-5p, s-RNY3-5p, and s-RNY4-5p from human. Quantitative RT-PCRs using Sybr Green and TaqMan (Invitrogen) for cel-miR-39 were performed on a StepONE system (Applied Biosystem). The primer sequences are detailed in Table 1. […]

For data set [3], the system named is human primary macrophages. The experiment in a line: Northern blot of s-RNYs in human primary macrophages. In kind it is cell-based. As to conditions: data not shown.
The next data set deals with p38, NF-κB, JNK. The experiment in a line: p38, NF-κB and JNK signaling activation in BMDMs. In kind it is cell-based, mouse. The following applies: time course, data not shown. How it is done:
BMDMs and NIH-3T3 cells (ATCC) were transiently transfected for 48 hr with Lipofectamine 2000 (Invitrogen) according to the manufacturer's instructions. siRNAs were transfected at the final concentration of 24 nM, while 2′-OMe-RNA antisense oligonucleotides to s-RNYs (Eurogentec) were transfected at the final concentration of 100 nM. When required, cell lysates were incubated at room temperature with RNase A (10 mg/ml, Ambion) for 30 min. Three-hundred micrograms of protein was immunoprecipitated with Protein A-Dynabeads (Invitrogen)-coupled antibodies for 16 hr at 4° C. with rotation. Immunoprecipitates were washed four times with lysis buffer and resuspended in SDS protein loading buffer. Proteins were subjected to SDS-PAGE, electroblotted onto PVDF membranes, and probed with different antibodies as indicated.
Recombinant Ago2 and hnRNP A1 were purchased from Sino Biological Inc. and CliniSciences, respectively, while recombinant KSRP was a gift from Dr. R. Gherzi. Mouse monoclonal anti-hnRNP A1 (4B10), mouse monoclonal anti-c-Myc (9E10), goat anti-actin (1-19), and IκBα (H-4) antibodies were purchased from SantaCruz. Rabbit anti-La/SSB and anti-Ro60 (TROVE2) antibodies were purchased from GmbH. Anti-Ago2 antibody was purchased from Wako Chemicals while rabbit anti-KLF2 and anti-NOS2A antibodies were from Millipore. Anti-KSRP antibody was a gift from Dr. R. Gherzi. […]

Data set [4] deals with BMDMs. As to the kind of experiment: Quantitative RT-PCR of s-RNYs from the medium of BMDMs. In kind it is cell-based, mouse. As to conditions: 0.25 mM PA 18 hr, FIG. 14B. The protocol:
FIG. 14: (A) Quantitative RT-PCR analysis of the indicated s-RNYs in BMDMs incubated with 0.25 mM of PA the indicated time. The data were normalized by U2 snRNA. (B) Quantitative RT-PCR analysis of the indicated s-RNYs from the medium of BMDMs. Cells were left unstimulated or incubated with 0.25 mM PA for 18 hr. Data were normalized by using the synthetic non-mammalian cel-miR-39, which was added to the samples before the RNA extraction. Data are presented as mean and s.d. (n=8).
(§1) RNA expression by quantitative RT-PCR was carried out by using standard procedures. Briefly, for mRNA, total RNA was isolated from cells using Trizol and cDNA was synthesized with a random hexonucleotides using Superscript III (Invitrogen). For s-RNYs detection by quantitative RT-PCR a stem-loop quantitative RT-PCR method was used according to Chen et al. (Chen, C., et al. (2005). Nucleic acids research 33, e179). Briefly, total RNA was isolated from cells, tissue, or immunoprecipitation using Trizol (Invitrogen) according to the manufacturer's instructions. […] This method allows the detection of the s-RNYs derived from only the 5′ end of the precursor by quantitative RT-PCR analysis, namely the s-RNY1-5p and s-RNY3-5p from mouse and s-RNY1-5p, s-RNY3-5p, and s-RNY4-5p from human. Quantitative RT-PCRs using Sybr Green and TaqMan (Invitrogen) for cel-miR-39 were performed on a StepONE system (Applied Biosystem). […]

Data set [5] deals with BMDMs. The experiment in a line: Apoptosis assay in BMDMs (annexin V / Dapi, flow cytometry). The following applies: FIGS. 13A and 13B. In kind it is cell-based, mouse. The protocol:
FIG. 13: Apoptotic data by fluorocytometry for BMDMs overexpressing s-RNYs, transfected with either 2′-OMe-RNA antisense oligonucleotides to s-RNYs or control. BMDMs were stimulated with 0.25 mM of PA for 18 hr (A), 0.25 μM thapsigargin (Tg) in combination with […] of oxLDL for 28 hr (B), or left unstimulated (C). Percentage of apoptotic and necrotic cells was determined by staining with Dapi and annexin […]. Data are presented as mean and s.d. (n=3). Apoptosis was assayed in BMDMs by staining with Alexa 488-conjugated annexin V and Dapi as previously described (Jacquel, A., et al., 2012. Blood 119(19): 4527-4531). The number of annexin V- and Dapi-positive cells was counted and expressed as a percent of the total number of cells from duplicate wells.
A general note: In flow cytometry, cells or beads pass a laser one at a time.

Data set [6] has as its system s-RNY1-3p binding sites (BS) from KFL2 mRNA sequence in NIH-3T3 cells. The experiment in a line: Luciferase reporter assay with s-RNY1-3p binding sites from KLF2 mRNA. As to conditions: PA treatment, FIG. 12C. It counts as cell-based. The text has this:
FIG. 12: (A) RNA duplex expected to result from base pairing of KFL2 mRNA with s-RNY1-3p. A-U and G-C base pairs are represented by solid lines; G-U wobble base pairs are represented by dotted lines, shown herein as SEQ ID NOS 58 and 59, respectively. (B) The sequence of the predicted target site of KFL2 mRNA from the indicated species, shown herein as SEQ ID NOS 60-63, respectively. The s-RNY1-3p seed complementary sequence is enclosed by a black box. Nucleotide conservation across the species is indicated by asterisks. (C) Relative luciferase activity of reporter constructs containing two either wt or mutant s-RNY1-3p binding sites (BS) from KFL2 mRNA sequence in NIH-3T3 cells transfected with either 2′-OMe-RNA antisense oligonucleotide to s-RNY1-3p or control. Cells were left unstimulated or stimulated with 0.25 mM of PA for 18 hr. The data were normalized using Renilla activity. Data are presented as mean and s.d. (n=4). Student's t-test: **P<0.01.
NIH-3T3 cells (80% confluence in 96-well plates) were transfected with Lipofectamine 2000® according to the manufacturer's instructions. Luciferase reporter assay was performed as previously described (Repetto, E., et al. (2012). PLoS genetics 8, e1002823).
On the technique in general: Reporter assays use an easily measured gene product as a stand-in for the process of interest.

For data set [7], the system named is potential s-RNYs-target mRNAs. As to the kind of experiment: Quantitative RT-PCR of potential s-RNYs-target mRNAs in PA-treated BMDMs. In kind it is cell-based, mouse. As to conditions: of 32 mRNAs (about 62%), FIG. 11. How it is done: FIG. 11: Quantitative RT-PCR analysis of the potential s-RNYs-target mRNAs in BMDMs transfected with siAgo2, 2′-OMe-RNA antisense oligonucleotides (AS) to s-RNYs, or control. BMDMs were left unstimulated (black column) or stimulated with 0.25 mM of PA for 18 hr, and total RNA was isolated and analyzed. Data were normalized by U2 snRNA and are presented as mean and s.d. (n=6).
BMDMs and NIH-3T3 cells (ATCC) were transiently transfected for 48 hr with Lipofectamine 2000 (Invitrogen) according to the manufacturer's instructions. siRNAs were transfected at the final concentration of 24 nM, while 2′-OMe-RNA antisense oligonucleotides to s-RNYs (Eurogentec) were transfected at the final concentration of 100 nM. […]
as §1, with “Briefly, for mRNA, total RNA was isolated from cells using Trizol and cDNA was synthesized with a random hexonucleotides using Superscript III (Invitrogen).” left out, “e179).” for “e179). Briefly, total RNA was isolated from cells, tissue, or immunoprecipitation using Trizol (Invitrogen) according to the manufacturer's instructions.”

Experimental findings from patent US10208351B2, “RNY-derived small RNAs as biomarkers for atherosclerosis-related disorders” (INSTITUT NATIONAL DE LA SANTE ET DE LA RECHERCHE MEDICALE …, priority 2013, dated 2019) are described below.

As for `CCCCCCCC/C=C\CCCCCCCC(=O)O` [oleic acid], the s-RNY expression entry in data set [1] and in data set [2] was “did not induce” throughout.

As to `CCCCCCCCCCCCCCCCCC(=O)O` [stearic acid], the s-RNY expression entry is listed as “induced” in data set [1] and “increased markedly” in data set [2].

As to `C/C=C(/C)C(=O)O[C@H]1C(C)=C2[C@H]([C@@H]1OC(=O)CCCCCCC)[C@@](C)(OC(C)=O)C[C@H](OC(=O)CCC)[C@@]1(O)[C@H]2OC(=O)[C@@]1(C)O` [thapsigargin], the s-RNY expression entry in data set [1] is “no effect”.

As to `CN[C@@H]1C[C@H]2O[C@@](C)([C@@H]1OC)n1c3ccccc3c3c4c(c5c6ccccc6n2c5c31)C(=O)NC4` [STS, staurosporine], the “expression of s-RNYs (s-RNY1-5p, s-RNY1-3p, s-RNY3-5p and s-RNY4-5p)” value in data set [3] is listed as “induced”.

In the case of `CCCCCCCCCCCCCCCC(=O)O` [PA, palmitic acid], the “NF-κB activation (IκBα degradation)” value in the data set on p38, NF-κB, JNK (after 9 hr of treatment) is listed as “enhanced”. The “p38 activation (p38 phosphorylation)” value in the data set with p38, NF-κB, JNK (starting by 9 hr) is listed as “enhanced”. Moreover, in data set [1] (0.25 mM PA, FIG. 14A), the “time by which s-RNY expression was induced” value was no more than 9 h. For the same molecule, the s-RNY expression result in data set [1] was “induced”. Moreover, the “enrichment of s-RNYs in extracellular environment compared to control” value in the data set on BMDMs [4] is recorded as roughly 100 fold. Moreover, the “apoptosis in macrophages treated with pro-atherogenic stimuli” value in the data set with BMDMs [5] is given as “apoptosis activation”. In addition, the s-RNY expression entry in data set [2] was “increased markedly”. In addition, in data set [6], the “luciferase activity of the mutant reporter construct” value was “not affected” and the “luciferase activity of the reporter construct containing the wt sequence” value was “repressed”.

As for “5′-GUUGUAUUGUUUAGCGAUU-3′ (listed as RNA, chemistry not given here) [siAgo2]”, the “potential target mRNAs whose expression was Ago2 and s-RNYs dependent” value in data set [7] is on record as “at least 20/32”.

Regarding `CCCCC/C=C\C/C=C\CCCCCCCC(=O)O` [linoleic acid], the s-RNY expression entry in data set [1] and in data set [2] was “did not induce” each time.
